The term Cmax denotes the peak of the concentration-time curve. A word on the bioavailability: it is dose-corrected exposure relative to a reference, in per cent. A lower bioavailability goes with poor availability.

What all share (format): ADME, organism-based
Holding throughout (conditions): in vivo

Data set [1] is described as follows: Cmax in rat at 0.5 mg/kg, iv and 5 mg/kg, po.
Data set [2] can be described thus: Volume of distribution in rat at 0.5 mg/kg, iv and 5 mg/kg, po.
In data set [3] the test system is Rattus norvegicus. The data set can be described thus: Liver blood flow in rat at 0.5 mg/kg, iv and 5 mg/kg, po.
Data set [4] in a line: Bioavailability in rat at 0.5 mg/kg, iv and 5 mg/kg, po.

Compound `CN1CC(c2ccc(NC(=O)c3nc(C#N)c[nH]3)c(C3=CCCCC3)c2)CN(C)S1(=O)=O` displayed a Cmax in data set [1] of 839 ng/mL. The compound also registered a Vd in data set [2] of 0.564 L/kg. Further, the LBF in data set [3] came out at 55 mL/min/kg. Besides, the bioavailability in data set [4] stood at 15%.

The values above are taken from ChEMBL document CHEMBL1177769, “Reducing ion channel activity in a series of 4-heterocyclic arylamide FMS inhibitors” (Bioorg Med Chem Lett, 2010).
